Laboratory results: ChEMBL document CHEMBL4507264, “Data for DCP probe BAY-7598” (2021)

Experiments:
[1] = target: Activin receptor type-1 (Homo sapiens) (UniProt Q04771); settings: Compound concentration 1000.0 nM
[2] = target: Calcium/calmodulin-dependent protein kinase type 1B (Homo sapiens) (UniProt Q6P2M8); settings: Compound concentration 1000.0 nM
[3] = target: Calcium/calmodulin-dependent protein kinase kinase 1 (Homo sapiens) (UniProt Q8N5S9); settings: Compound concentration 1000.0 nM
[4] = target: Cyclin-dependent kinase 13 (Homo sapiens) (UniProt Q14004); settings: Compound concentration 1000.0 nM
[5] = target: Cyclin-dependent kinase 2 (Homo sapiens) (UniProt P24941); settings: Compound concentration 1000.0 nM
[6] = target: Cyclin-dependent kinase-like 3 (Homo sapiens) (UniProt Q8IVW4); settings: Compound concentration 1000.0 nM
[7] = target: Dual specificity protein kinase CLK4 (Homo sapiens) (UniProt Q9HAZ1); settings: Compound concentration 1000.0 nM
[8] = target: Casein kinase II subunit alpha (Homo sapiens) (UniProt P68400); settings: Compound concentration 1000.0 nM
[9] = target: Casein kinase II subunit alpha' (Homo sapiens) (UniProt P19784); settings: Compound concentration 1000.0 nM
[10] = target: Dual specificity tyrosine-phosphorylation-regulated kinase 1B (Homo sapiens) (UniProt Q9Y463); settings: Compound concentration 1000.0 nM
[11] = tested on: Epidermal growth factor receptor (Homo sapiens), P00533 [T790M]; settings: Compound concentration 1000.0 nM
[12] = target: Ephrin type-A receptor 2 (Homo sapiens) (UniProt P29317); settings: Compound concentration 1000.0 nM
[13] = target: Receptor tyrosine-protein kinase erbB-4 (Homo sapiens) (UniProt Q15303); settings: Compound concentration 1000.0 nM
[14] = target: Focal adhesion kinase 1 (Homo sapiens) (UniProt Q05397); settings: Compound concentration 1000.0 nM
[15] = target: Fibroblast growth factor receptor 3 (Homo sapiens) (UniProt P22607); settings: Compound concentration 1000.0 nM
[16] = target: Rhodopsin kinase GRK1 (Homo sapiens) (UniProt Q15835); settings: Compound concentration 1000.0 nM
Chain of Rhodopsin kinase GRK1 (Homo sapiens) (Q15835 whole entry): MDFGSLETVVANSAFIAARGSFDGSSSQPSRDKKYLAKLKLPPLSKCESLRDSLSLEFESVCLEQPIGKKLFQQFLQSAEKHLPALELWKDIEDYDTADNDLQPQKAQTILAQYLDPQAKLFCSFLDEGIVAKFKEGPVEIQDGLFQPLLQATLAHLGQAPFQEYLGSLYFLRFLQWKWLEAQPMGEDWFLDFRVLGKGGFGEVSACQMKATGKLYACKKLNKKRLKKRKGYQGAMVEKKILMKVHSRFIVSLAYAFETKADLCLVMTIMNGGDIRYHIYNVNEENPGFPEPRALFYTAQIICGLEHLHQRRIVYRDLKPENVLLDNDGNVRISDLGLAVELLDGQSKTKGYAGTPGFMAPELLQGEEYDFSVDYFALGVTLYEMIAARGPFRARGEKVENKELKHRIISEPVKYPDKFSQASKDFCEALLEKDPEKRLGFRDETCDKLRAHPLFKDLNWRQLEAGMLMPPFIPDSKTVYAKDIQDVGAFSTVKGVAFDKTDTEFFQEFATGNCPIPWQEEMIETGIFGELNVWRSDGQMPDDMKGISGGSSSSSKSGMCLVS

[17] = target: Interleukin-1 receptor-associated kinase 4 (Homo sapiens) (UniProt Q9NWZ3); settings: Compound concentration 1000.0 nM
Chain of Interleukin-1 receptor-associated kinase 4 (Homo sapiens) (Q9NWZ3 whole entry): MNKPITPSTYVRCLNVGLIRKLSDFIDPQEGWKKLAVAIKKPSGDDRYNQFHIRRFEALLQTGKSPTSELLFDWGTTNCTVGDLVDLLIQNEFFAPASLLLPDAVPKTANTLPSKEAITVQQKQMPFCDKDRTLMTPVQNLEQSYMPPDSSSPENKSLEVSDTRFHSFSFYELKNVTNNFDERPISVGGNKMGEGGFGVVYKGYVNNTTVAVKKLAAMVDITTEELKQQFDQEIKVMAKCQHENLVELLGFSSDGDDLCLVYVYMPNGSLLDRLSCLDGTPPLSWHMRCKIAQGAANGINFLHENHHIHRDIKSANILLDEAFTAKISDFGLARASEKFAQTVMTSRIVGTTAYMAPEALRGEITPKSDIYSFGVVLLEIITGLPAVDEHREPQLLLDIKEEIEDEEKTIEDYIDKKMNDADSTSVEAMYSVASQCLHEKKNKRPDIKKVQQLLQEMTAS

[18] = tested on: Mast/stem cell growth factor receptor Kit (Homo sapiens), P10721 [D816H]; settings: Compound concentration 1000.0 nM
Chain of Mast/stem cell growth factor receptor Kit (Homo sapiens), P10721 [D816H] (P10721 whole entry D816H): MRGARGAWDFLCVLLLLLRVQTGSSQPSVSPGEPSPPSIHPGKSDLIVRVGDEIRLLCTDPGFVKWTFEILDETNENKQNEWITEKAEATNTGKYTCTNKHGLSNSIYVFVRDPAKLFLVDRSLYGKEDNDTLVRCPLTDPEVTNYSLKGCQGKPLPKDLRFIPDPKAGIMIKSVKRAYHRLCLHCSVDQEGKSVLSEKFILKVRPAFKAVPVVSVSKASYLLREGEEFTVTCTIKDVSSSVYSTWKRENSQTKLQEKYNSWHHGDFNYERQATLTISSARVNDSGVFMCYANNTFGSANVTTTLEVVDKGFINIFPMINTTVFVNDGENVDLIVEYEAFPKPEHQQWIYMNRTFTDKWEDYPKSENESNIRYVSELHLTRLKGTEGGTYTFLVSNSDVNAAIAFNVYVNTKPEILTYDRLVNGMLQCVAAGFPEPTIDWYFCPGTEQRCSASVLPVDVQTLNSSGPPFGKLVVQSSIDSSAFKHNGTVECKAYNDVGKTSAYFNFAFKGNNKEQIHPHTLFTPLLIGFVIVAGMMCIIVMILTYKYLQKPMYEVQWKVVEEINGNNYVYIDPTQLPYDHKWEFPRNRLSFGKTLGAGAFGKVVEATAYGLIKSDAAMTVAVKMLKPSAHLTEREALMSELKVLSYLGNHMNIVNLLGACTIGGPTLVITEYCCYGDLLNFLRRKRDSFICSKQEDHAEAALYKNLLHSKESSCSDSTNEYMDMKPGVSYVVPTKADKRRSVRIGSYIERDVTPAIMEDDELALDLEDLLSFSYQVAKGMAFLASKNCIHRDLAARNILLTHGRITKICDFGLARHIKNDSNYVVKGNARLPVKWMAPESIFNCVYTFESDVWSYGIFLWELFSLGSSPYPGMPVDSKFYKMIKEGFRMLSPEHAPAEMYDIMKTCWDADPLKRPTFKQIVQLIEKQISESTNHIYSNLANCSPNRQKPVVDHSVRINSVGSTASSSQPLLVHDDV

[19] = tested on: Mast/stem cell growth factor receptor Kit (Homo sapiens), P10721 [L576P]; settings: Compound concentration 1000.0 nM
Chain of Mast/stem cell growth factor receptor Kit (Homo sapiens), P10721 [L576P] (P10721 whole entry L576P): as the sequence (P10721 whole entry D816H) above, with L576P, H816D counted along it

[20] = target: Dual specificity mitogen-activated protein kinase kinase 3 (Homo sapiens) (UniProt P46734); settings: Compound concentration 1000.0 nM
[21] = tested on: Hepatocyte growth factor receptor (Homo sapiens), P08581 [Y1235D]; settings: Compound concentration 1000.0 nM
[22] = target: Mitogen-activated protein kinase kinase kinase 10 (Homo sapiens) (UniProt Q02779); settings: Compound concentration 1000.0 nM
[23] = target: Mitogen-activated protein kinase kinase kinase 11 (Homo sapiens) (UniProt Q16584); settings: Compound concentration 1000.0 nM
[24] = target: Serine/threonine-protein kinase mTOR (Homo sapiens) (UniProt P42345); settings: Compound concentration 1000.0 nM
[25] = target: Mitogen-activated protein kinase 13 (Homo sapiens) (UniProt O15264); settings: Compound concentration 1000.0 nM
[26] = tested on: Phosphatidylinositol 4,5-bisphosphate 3-kinase catalytic subunit alpha isoform (Homo sapiens), P42336 [M1043I]; settings: Compound concentration 1000.0 nM
[27] = target: Serine/threonine-protein kinase pim-2 (Homo sapiens) (UniProt Q9P1W9); settings: Compound concentration 1000.0 nM
[28] = target: Phosphatidylinositol 4-phosphate 5-kinase type-1 gamma (Homo sapiens) (UniProt O60331); settings: Compound concentration 1000.0 nM
[29] = target: Membrane-associated tyrosine- and threonine-specific cdc2-inhibitory kinase (Homo sapiens) (UniProt Q99640); settings: Compound concentration 1000.0 nM
[30] = target: Serine/threonine-protein kinase RIO2 (Homo sapiens) (UniProt Q9BVS4); settings: Compound concentration 1000.0 nM
[31] = target: Ribosomal protein S6 kinase alpha-2 (Homo sapiens) (UniProt Q15349); settings: Compound concentration 1000.0 nM
Chain of Ribosomal protein S6 kinase alpha-2 (Homo sapiens) (Q15349 whole entry): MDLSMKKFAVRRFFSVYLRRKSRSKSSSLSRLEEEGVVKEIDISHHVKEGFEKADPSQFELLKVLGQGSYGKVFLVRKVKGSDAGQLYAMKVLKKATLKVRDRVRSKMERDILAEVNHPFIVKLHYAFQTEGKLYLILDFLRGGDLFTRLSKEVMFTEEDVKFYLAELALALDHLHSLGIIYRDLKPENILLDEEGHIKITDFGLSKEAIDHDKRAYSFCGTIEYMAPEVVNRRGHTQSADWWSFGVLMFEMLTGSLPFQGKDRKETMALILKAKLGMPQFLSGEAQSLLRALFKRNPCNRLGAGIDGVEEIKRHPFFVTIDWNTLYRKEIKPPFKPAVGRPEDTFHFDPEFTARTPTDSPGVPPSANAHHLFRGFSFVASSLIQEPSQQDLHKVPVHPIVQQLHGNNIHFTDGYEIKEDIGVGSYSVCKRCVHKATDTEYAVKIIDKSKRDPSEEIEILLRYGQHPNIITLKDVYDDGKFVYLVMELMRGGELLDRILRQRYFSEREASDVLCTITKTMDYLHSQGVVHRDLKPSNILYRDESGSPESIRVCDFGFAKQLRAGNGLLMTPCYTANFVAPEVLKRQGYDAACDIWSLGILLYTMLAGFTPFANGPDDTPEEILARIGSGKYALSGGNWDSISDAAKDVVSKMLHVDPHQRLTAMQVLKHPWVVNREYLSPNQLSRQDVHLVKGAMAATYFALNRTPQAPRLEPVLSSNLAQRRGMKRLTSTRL

[32] = target: Tyrosine-protein kinase receptor Tie-1 (Homo sapiens) (UniProt P35590); settings: Compound concentration 1000.0 nM
[33] = target: Non-receptor tyrosine-protein kinase TNK1 (Homo sapiens) (UniProt Q13470); settings: Compound concentration 1000.0 nM
[34] = target: Serine/threonine-protein kinase TNNI3K (Homo sapiens) (UniProt Q59H18); settings: Compound concentration 1000.0 nM
[35] = target: Serine/threonine-protein kinase WNK4 (Homo sapiens) (UniProt Q96J92); settings: Compound concentration 1000.0 nM
Chain of Serine/threonine-protein kinase WNK4 (Homo sapiens) (Q96J92 whole entry): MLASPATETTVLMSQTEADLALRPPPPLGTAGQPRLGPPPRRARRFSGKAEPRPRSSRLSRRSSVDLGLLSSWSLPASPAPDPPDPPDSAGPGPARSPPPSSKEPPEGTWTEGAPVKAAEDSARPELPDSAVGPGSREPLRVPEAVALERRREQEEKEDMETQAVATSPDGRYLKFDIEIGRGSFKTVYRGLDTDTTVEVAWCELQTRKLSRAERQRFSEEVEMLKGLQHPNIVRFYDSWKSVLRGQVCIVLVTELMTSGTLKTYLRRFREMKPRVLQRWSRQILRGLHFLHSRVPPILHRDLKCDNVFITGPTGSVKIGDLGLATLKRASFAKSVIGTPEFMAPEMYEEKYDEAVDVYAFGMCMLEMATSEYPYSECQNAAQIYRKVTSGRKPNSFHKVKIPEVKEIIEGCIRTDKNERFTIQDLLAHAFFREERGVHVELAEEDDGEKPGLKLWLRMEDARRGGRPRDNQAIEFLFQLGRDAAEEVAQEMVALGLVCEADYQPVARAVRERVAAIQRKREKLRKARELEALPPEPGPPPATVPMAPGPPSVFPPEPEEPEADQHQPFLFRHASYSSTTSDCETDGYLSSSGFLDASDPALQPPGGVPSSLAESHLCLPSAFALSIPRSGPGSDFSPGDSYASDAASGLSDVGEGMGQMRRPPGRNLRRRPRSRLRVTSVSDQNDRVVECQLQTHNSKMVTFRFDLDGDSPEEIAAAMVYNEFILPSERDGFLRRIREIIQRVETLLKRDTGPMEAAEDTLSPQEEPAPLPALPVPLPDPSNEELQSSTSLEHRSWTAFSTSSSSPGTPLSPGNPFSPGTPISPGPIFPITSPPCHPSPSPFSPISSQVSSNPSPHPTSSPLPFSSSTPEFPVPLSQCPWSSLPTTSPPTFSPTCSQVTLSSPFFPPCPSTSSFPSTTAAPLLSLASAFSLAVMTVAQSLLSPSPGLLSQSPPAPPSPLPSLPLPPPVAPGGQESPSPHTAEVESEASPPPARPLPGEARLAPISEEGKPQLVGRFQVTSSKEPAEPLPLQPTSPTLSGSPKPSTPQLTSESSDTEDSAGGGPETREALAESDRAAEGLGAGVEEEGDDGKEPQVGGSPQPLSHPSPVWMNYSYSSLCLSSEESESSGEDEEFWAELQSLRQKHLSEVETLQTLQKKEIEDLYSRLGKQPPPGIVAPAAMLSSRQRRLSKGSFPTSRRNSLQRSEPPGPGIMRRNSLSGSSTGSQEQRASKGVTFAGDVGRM

[36] = target: Mitogen-activated protein kinase kinase kinase 20 (Homo sapiens) (UniProt Q9NYL2); settings: Compound concentration 1000.0 nM
[37] = target: Delta-type opioid receptor (Homo sapiens) (UniProt P41143); settings: Compound concentration 10.0 uM
[38] = target: T1, Muscarinic acetylcholine receptor M2 (Homo sapiens) (UniProt P08172); settings: Compound concentration 10.0 uM
T1 sequence (whole entry): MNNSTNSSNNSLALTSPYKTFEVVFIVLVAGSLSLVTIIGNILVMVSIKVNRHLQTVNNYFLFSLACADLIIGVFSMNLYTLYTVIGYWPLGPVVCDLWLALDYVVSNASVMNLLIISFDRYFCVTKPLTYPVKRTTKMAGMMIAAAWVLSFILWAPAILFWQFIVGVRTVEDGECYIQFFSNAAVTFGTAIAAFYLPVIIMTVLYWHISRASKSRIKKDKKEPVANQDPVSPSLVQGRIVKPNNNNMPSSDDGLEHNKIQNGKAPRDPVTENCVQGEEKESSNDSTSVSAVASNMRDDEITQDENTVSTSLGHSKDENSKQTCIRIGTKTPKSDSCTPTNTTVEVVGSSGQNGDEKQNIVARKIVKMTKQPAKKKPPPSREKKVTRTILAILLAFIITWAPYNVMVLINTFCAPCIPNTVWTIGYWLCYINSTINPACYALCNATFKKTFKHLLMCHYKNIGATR

[39] = target: Muscarinic acetylcholine receptor M4 (Homo sapiens) (UniProt P08173); settings: Compound concentration 10.0 uM
Chain of Muscarinic acetylcholine receptor M4 (Homo sapiens) (P08173 whole entry): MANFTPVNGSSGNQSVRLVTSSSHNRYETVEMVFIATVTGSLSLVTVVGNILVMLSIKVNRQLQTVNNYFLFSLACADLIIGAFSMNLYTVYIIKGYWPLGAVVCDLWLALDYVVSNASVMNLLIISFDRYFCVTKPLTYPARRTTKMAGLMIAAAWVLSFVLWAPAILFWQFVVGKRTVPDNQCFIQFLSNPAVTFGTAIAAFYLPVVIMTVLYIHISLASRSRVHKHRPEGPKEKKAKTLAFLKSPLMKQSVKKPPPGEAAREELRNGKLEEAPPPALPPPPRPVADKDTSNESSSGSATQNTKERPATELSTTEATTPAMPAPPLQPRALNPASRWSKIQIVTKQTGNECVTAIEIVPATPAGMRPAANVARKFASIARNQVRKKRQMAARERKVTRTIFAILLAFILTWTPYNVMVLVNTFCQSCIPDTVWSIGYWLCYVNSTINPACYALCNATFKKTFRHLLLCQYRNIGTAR

Chain of Calcium/calmodulin-dependent protein kinase type 1B (Homo sapiens) (Q6P2M8 whole entry): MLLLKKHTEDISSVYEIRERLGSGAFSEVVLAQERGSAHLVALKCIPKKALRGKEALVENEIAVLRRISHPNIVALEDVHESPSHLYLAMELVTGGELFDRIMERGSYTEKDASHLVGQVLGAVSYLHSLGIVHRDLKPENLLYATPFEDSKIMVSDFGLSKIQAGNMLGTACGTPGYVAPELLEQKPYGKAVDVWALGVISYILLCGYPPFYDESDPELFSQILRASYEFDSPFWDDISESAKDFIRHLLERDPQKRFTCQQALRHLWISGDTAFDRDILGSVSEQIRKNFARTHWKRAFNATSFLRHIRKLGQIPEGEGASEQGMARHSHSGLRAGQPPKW

SMILES	residual activity [1]	residual activity [2]	residual activity [3]	residual activity [4]	residual activity [5]	residual activity [6]	residual activity [7]	residual activity [8]	residual activity [9]	residual activity [10]	residual activity [11]	residual activity [12]	residual activity [13]	residual activity [14]	residual activity [15]	residual activity [16]	residual activity [17]	residual activity [18]	residual activity [19]	residual activity [20]	other results
O=C(O)[C@@H]1[C@@H](Cn2nnc3ccccc3c2=O)CC[C@H]1C(=O)c1ccc(OCCC2CCOCC2)cc1 [BAY-694]	100%	67%	100%	92%	100%	98%	100%	87%	88%	86%	94%	100%	100%	100%	100%	100%	76%	68%	100%	92%	residual activity [21]: 98%; residual activity [22]: 100%; residual activity [23]: 92%; residual activity [24]: 96%; residual activity [25]: 94%; residual activity [26]: 100%; residual activity [27]: 94%; residual activity [28]: 100%; residual activity [29]: 82%; residual activity [30]: 88%; residual activity [31]: 100%; residual activity [32]: 100%; residual activity [33]: 100%; residual activity [34]: 94%; residual activity [35]: 75%; residual activity [36]: 91%; inhibition [37]: 15.9%; inhibition [38]: -2.32%; inhibition [39]: -7.11%
O=C(O)[C@H]1[C@H](Cn2nnc3ccccc3c2=O)CC[C@@H]1C(=O)c1ccc(OCCC2CCOCC2)cc1 [BAY-7598]	100%	46%	81%	93%	100%	87%	100%	100%	79%	100%	77%	93%	89%	89%	100%	97%	76%	80%	96%	90%	residual activity [21]: 100%; residual activity [22]: 82%; residual activity [23]: 92%; residual activity [24]: 100%; residual activity [25]: 97%; residual activity [26]: 100%; residual activity [27]: 96%; residual activity [28]: 100%; residual activity [29]: 96%; residual activity [30]: 100%; residual activity [31]: 78%; residual activity [32]: 75%; residual activity [33]: 100%; residual activity [34]: 100%; residual activity [35]: 91%; residual activity [36]: 100%; inhibition [37]: 1.43%; inhibition [38]: 1.41%; inhibition [39]: -5.24%
